Measured values from US11684646B2, “Methods and related compositions for reducing oxidative stress” (Gateway Health Alliances, Inc., priority 2019, dated 2023).

How the values were obtained:
[1] = test system: Aluminum chloride induced neurotoxicity in Wistar rats; assay: Aluminum chloride induced neurotoxicity in rats: thiol proteins in brain; type: in vivo; conditions: brain of rats; AlCl3 32.5 mg/kg i.p.; Vit E 100 mg/kg BW/day (VE100)
Protocol: (§1) [formula] I.3. Evaluation of Neuro-Protective Effects of the Hydro-Ethanolic Extract of B. toxisperma Against Aluminum Chloride Induced Neurotoxicity (Animal Model of Neurotoxicity)
(§2) Twenty albinos Wistar rats weighing between 230-250 g were used for this experiment in which the treatment lasted 3 days. The experimentation was conducted in the animal house of the Laboratory of Nutrition and Nutritional Biochemistry of the department of Biochemistry (Faculty of Science, University of Yaounde I). Animals were fed with standard feed and drinking water ad libitum.
Rats were divided into 5 groups of 4 rats each. […]
PROTOCOL: The assay tubes contained 100 μL of homogenate or plasma or ovalbumin (caliber) and 3 mL of Biuret's reagent (annex 3c). […] The optical densities were read at 540 nm against a blank which contained 3 mL of reagent solution and 100 μL of NaCl 0.9% incubated under similar conditions. The total protein concentration was determined from the following equation: […]
PROTOCOL: 100 μL of homogenate and 900 μL of Ellman's reagent (annex 3d) were added into the assay tubes, homogenized and incubated at room temperature for 30 minutes before reading the optical densities at 412 nm against a blank which contained 900 μL the reagent solution and 100 μL of NaCl 0.9% incubated under similar conditions as the assay. […] Results were expressed as μmol/g of total proteins.

[2] = test system: lipid peroxidation induced in brain homogenates; assay: Inhibition of FeSO4-induced lipid peroxidation in brain homogenates; type: biochemical, Wistar rats
Source text: I.2.3 Inhibitory Activity of Lipid Peroxide in Nitro (Prasanth et al., 2000)
PRINCIPLE: Lipid peroxidation refers to the oxidative degradation of lipids which provoke a continuous increase in the permeability of cell membranes, inducing an irreversible alteration of the functional properties of the cell which could eventually lead to cytolysis. It is a radical chain reaction in which a free radical cleaves a hydrogen atom from membrane lipids in order to form a conjugated diene radical, which is oxidized to a peroxyl that in turn generates other radical reactions leading to the formation of terminal products such as MDA. Iron can stimulate lipid peroxidation either by Fenton reaction or by acceleration of peroxidation through the decomposition of lipid hydroperoxides into peroxyl or alkoxyl radicals; themselves capable of cleaving a hydrogen and perpetrating lipid peroxidation. The MDA from this reaction reacts with TBA to give pink colored chromophores which absorb at 532 nm. […]
The lipid peroxidation test was conducted as follows: 300 μL of plant extract at different concentrations and distilled water (control) were added to 500 μL of each homogenate. […] The absorbance was read at 532 nm. […] The IC50 were determined by extrapolating after drawing curves of lipid peroxidation percentage inhibition against the concentrations of plant extracts.

[3] = test system: Aluminum chloride induced neurotoxicity in Wistar rats; assay: Aluminum chloride induced neurotoxicity in rats: MDA in brain; type: in vivo
Protocol: as §1, §2
Rats were divided into 5 groups of 4 rats each. A unique dose of 32.5 mg/kg BW of aluminum trichloride (AlCl3) was administered by intra peritoneal (i.p) route. […]
PROTOCOL: 100 μL of homogenate and 400 μL of TBA reagent (annex 3b) were introduced into glass test tubes (blank and assay) which were tightly corked. […] The tubes were later opened for any gas to evaporate before centrifugation for 5 minutes at 1500 revs/minute and the absorbance of the liquid phase was read at 532 nm against a blank which contained 400 μL of reagent solution and 100 μL of NaCl 0.9% incubated in similar conditions. The concentration of MDA was determined using it molar extinction coefficient (ε=1.53×10^5 M^−1·cm^−1) and the following formula.

Vitamin E
Thiols proteins [1]: 0.299 ± 0.071 μg/mg of proteins
IC50 for lipid peroxidation induced in the brain [2]: 574 µg/mL
percentage inhibition of lipid peroxidation in brain homogenates ([2]; 1000 m/mL): 60.427%
effect on MDA level in rats compared with the positive control (PC) ([3]; HEEBT 150 and 300 mg/kg BW, vitamin E, p<0.05): significantly (p<0.05) reduced
MDA ([3]; brain of rats, AlCl3 32.5 mg/kg i.p., Vit E 100 mg/kg BW/day oral, 3 days (VE100)): 4.631 ± 0.652 µM
